Laboratory results reported in PubChem BioAssay AID222 (DTP/NCI, 2004).
Several values for one entry are separate records, joined by “and”; a condition that tells them apart may be missing. Equal entries are not always repeated. Toxic doses and inconclusive results are not listed.

Test system: C57BL/6 mice, intracerebral ependymoblastoma, median survival T/C
Assay: NCI In Vivo Anticancer Drug Screen. Data for tumor model Ependymoblastoma (intracerebral) in C57BL/6 mice
Details: endpoint: median survival time, higher = longer survival
Procedure: The antitumor activity of compounds was measured in mice bearing transplantable tumors. Survival or tumor size were measured and the results are expressed as the measurement made in the treated group (T) divided by the measurement made in the vehicle treated control group (C). The tumor model used in this assay is Ependymoblastoma (intracerebral) in C57BL/6 mice

[1] = dose: 16.0 mg/kg/injection, schedule: Q01DX001 (ip), vehicle: other
[2] = dose: 20.0 mg/kg/injection, schedule: Q01DX001 (ip), vehicle: other

O=NN(CCCl)C(=O)NCCCl
T/C (dose: 0.12 mg/kg/injection, schedule: Q03HX032 (ip), vehicle: saline): 113 % of control and 291 % of control
T/C (dose: 0.25 mg/kg/injection, schedule: Q03HX032 (ip), vehicle: saline): 291 % of control
T/C (dose: 0.5 mg/kg/injection, schedule: Q03HX008 (ip), vehicle: saline): 110 % of control
T/C (dose: 0.5 mg/kg/injection, schedule: Q03HX032 (ip), vehicle: saline): 169 % of control
T/C (dose: 1.0 mg/kg/injection, schedule: Q01DX005 (ip), vehicle: saline + alcohol): 109 % of control
T/C (dose: 2.0 mg/kg/injection, schedule: Q01DX001 (ip), vehicle: Klucel (hydroxypropylcellulose) (HPC)): 95 % of control and 100 % of control and 111 % of control
T/C (dose: 2.0 mg/kg/injection, schedule: Q01DX005 (ip), vehicle: saline with Tween-80): 113 % of control
T/C (dose: 2.0 mg/kg/injection, schedule: Q03HX008 (ip), vehicle: saline): 103 % of control and 251 % of control
T/C (dose: 2.0 mg/kg/injection, schedule: Q03HX032 (ip), vehicle: saline): 151 % of control and 179 % of control
T/C (dose: 4.0 mg/kg/injection, schedule: Q01DX001 (ip), vehicle: Klucel (hydroxypropylcellulose) (HPC)): 101 % of control and 106 % of control and 120 % of control
T/C (dose: 4.0 mg/kg/injection, schedule: Q01DX001 (oral), vehicle: saline with Tween-80): 97 % of control and 108 % of control
T/C (dose: 4.0 mg/kg/injection, schedule: Q01DX005 (ip), vehicle: alcohol): 106 % of control
T/C (dose: 4.0 mg/kg/injection, schedule: Q03HX008 (ip), vehicle: saline): 178 % of control and 327 % of control
T/C (dose: 4.0 mg/kg/injection, schedule: Q## X006 (ip), vehicle: saline with Tween-80): 159 % of control
T/C (dose: 8.0 mg/kg/injection, schedule: Q01DX001 (ip), vehicle: Klucel (hydroxypropylcellulose) (HPC)): 115 % of control
T/C (dose: 8.0 mg/kg/injection, schedule: Q01DX001 (oral), vehicle: saline with Tween-80): 95 % of control and 102 % of control and 122 % of control
T/C (dose: 8.0 mg/kg/injection, schedule: Q01DX005 (ip), vehicle: saline + alcohol): 361 % of control
T/C (dose: 8.0 mg/kg/injection, schedule: Q03HX008 (ip), vehicle: saline): 96 % of control and 98 % of control
T/C (dose: 8.0 mg/kg/injection, schedule: Q## X006 (ip), vehicle: saline with Tween-80): 219 % of control
T/C (dose: 10.0 mg/kg/injection, schedule: Q01DX001 (ip), vehicle: other): 124 % of control
T/C (dose: 15.0 mg/kg/injection, schedule: Q01DX001 (ip), vehicle: saline with Tween-80): 176 % of control
T/C (dose: 16.0 mg/kg/injection, schedule: Q01DX001 (ip), vehicle: Klucel (hydroxypropylcellulose) (HPC)): 150 % of control and 228 % of control
T/C [1]: 124 % of control
T/C (dose: 16.0 mg/kg/injection, schedule: Q01DX001 (oral), vehicle: saline with Tween-80): 158 % of control
T/C (dose: 16.0 mg/kg/injection, schedule: Q01DX005 (ip), vehicle: saline + alcohol): 96 % of control
T/C (dose: 16.0 mg/kg/injection, schedule: Q08DX002 (ip), vehicle: saline): 207 % of control and 291 % of control
T/C [2]: 164 % of control
T/C (dose: 20.0 mg/kg/injection, schedule: Q01DX001 (oral), vehicle: saline with Tween-80): 195 % of control
T/C (dose: 30.0 mg/kg/injection, schedule: Q01DX001 (ip), vehicle: saline with Tween-80): 212 % of control
T/C (dose: 32.0 mg/kg/injection, schedule: Q01DX001 (ip), vehicle: Klucel (hydroxypropylcellulose) (HPC)): 101 % of control and 217 % of control and 231 % of control
T/C (dose: 32.0 mg/kg/injection, schedule: Q01DX001 (ip), vehicle: other): 219 % of control
T/C (dose: 32.0 mg/kg/injection, schedule: Q01DX001 (oral), vehicle: saline with Tween-80): 108 % of control
T/C (dose: 32.0 mg/kg/injection, schedule: Q04DX004 (ip), vehicle: saline): 111 % of control
T/C (dose: 40.0 mg/kg/injection, schedule: Q01DX001 (ip), vehicle: other): 196 % of control
T/C (dose: 64.0 mg/kg/injection, schedule: Q01DX001 (ip), vehicle: saline with Tween-80): 94 % of control
T/C (dose: 64.0 mg/kg/injection, schedule: Q01DX001 (oral), vehicle: saline with Tween-80): 94 % of control
T/C (dose: 64.0 mg/kg/injection, schedule: Q04DX004 (ip), vehicle: saline): 100 % of control
T/C (dose: 64.0 mg/kg/injection, schedule: Q08DX002 (ip), vehicle: saline): 97 % of control
T/C (dose: 128.0 mg/kg/injection, schedule: Q01DX001 (ip), vehicle: saline with Tween-80): 97 % of control
T/C (dose: 128.0 mg/kg/injection, schedule: Q01DX001 (oral), vehicle: saline with Tween-80): 92 % of control
T/C (dose: 256.0 mg/kg/injection, schedule: Q01DX001 (ip), vehicle: saline with Tween-80): 88 % of control
T/C (dose: 256.0 mg/kg/injection, schedule: Q01DX001 (oral), vehicle: saline with Tween-80): 88 % of control

CN(C)C(=O)N(CCCl)N=O
T/C [1]: 154 % of control
T/C [2]: 279 % of control

O=P1(NCCCl)OCCC(OO)N1CCCl (configuration not stated)
T/C (dose: 40.0 mg/kg/injection, schedule: Q01DX001 (ip), vehicle: Klucel (hydroxypropylcellulose) (HPC)): 121 % of control
T/C (dose: 80.0 mg/kg/injection, schedule: Q01DX001 (ip), vehicle: Klucel (hydroxypropylcellulose) (HPC)): 121 % of control
T/C (dose: 160.0 mg/kg/injection, schedule: Q01DX001 (ip), vehicle: Klucel (hydroxypropylcellulose) (HPC)): 151 % of control
